target: Tyro3 (Homo sapiens (Human), UniProt Q06418); test: TAM Enzymatic Assay (HTRF), Tyro3; assay type: biochemical; details: Tyro3, 60 min, room temperature
Procedure: (§1) The kinase assay buffer contained 50 mM HEPES, pH7.5, 10 mM MgCl2, 1 mM EGTA, 0.01% NP-40 and 2 mM DTT. 0.1 ul test compounds dissolved in DMSO were transferred from compound plates to white 384-well assay plates (Greiner […] plates). […] 4 ul enzyme solution (or assay buffer for the enzyme blank) was added to the appropriate wells in each plate, and then 4 ul/well substrate solution was added to initiate the reaction. The plate was protected from light and incubated at room temperature for 60 min. […] The plate was incubated for 1 h at room temperature, and HTRF (homogenous time resolved fluorescence) signal was measured on a PHERAstar FS plate reader (BMG labtech). Percentage of inhibition was calculated for each concentration and IC50 value was generated from curve fitting with GraphPad Prism software.

Sequence of Tyro3 (Q06418 41-890): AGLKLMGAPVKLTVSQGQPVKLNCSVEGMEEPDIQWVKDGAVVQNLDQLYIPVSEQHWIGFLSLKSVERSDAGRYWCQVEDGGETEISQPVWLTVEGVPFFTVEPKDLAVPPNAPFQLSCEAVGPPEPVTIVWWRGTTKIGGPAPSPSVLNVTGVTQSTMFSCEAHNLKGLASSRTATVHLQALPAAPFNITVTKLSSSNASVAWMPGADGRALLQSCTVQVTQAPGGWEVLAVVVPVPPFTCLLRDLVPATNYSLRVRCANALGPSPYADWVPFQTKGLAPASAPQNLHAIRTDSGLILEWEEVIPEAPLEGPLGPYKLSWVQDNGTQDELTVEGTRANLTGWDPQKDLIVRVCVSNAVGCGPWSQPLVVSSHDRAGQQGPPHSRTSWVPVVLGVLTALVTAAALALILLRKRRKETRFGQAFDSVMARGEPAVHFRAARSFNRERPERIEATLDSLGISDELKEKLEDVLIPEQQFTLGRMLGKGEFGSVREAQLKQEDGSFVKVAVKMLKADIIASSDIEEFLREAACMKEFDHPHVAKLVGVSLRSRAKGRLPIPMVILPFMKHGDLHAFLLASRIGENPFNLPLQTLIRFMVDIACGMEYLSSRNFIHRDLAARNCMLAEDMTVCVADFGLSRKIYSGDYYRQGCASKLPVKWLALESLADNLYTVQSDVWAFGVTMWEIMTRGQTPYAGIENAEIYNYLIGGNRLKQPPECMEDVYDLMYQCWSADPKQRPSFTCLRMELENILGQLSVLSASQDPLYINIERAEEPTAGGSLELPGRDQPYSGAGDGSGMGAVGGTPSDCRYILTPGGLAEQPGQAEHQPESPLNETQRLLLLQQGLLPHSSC

Compound	IC50
Cc1nn(C)c(C)c1-c1cc(-c2ccc(NC(=O)c3cn(C(C)C)c(=O)n(-c4cccc(F)c4)c3=O)cc2)c2c(N)ncnn12 [Example 84, N-(4-(4-Amino-7-(1,3,5-trimethyl-1H-pyrazol-4-yl)pyrrolo[1,2-f][1,2,4]triazin-5-yl)phenyl)-3-(3-fluorophenyl)-1-isopropyl-2,4-dioxo-1,2,3,4-tetrahydropyrimidine-5-carboxamide]	> 100 nM
CC(C)n1cc(C(=O)Nc2ccc(-c3cc(C(=O)N(C)C)n4ncnc(N)c34)cc2)c(=O)n(-c2cccc(F)c2)c1=O [Example 86, 4-Amino-5-(4-(3-(3-fluorophenyl)-1-isopropyl-2,4-dioxo-1,2,3,4-tetrahydropyrimidine-5-carboxamido)phenyl)-N,N-dimethylpyrrolo[2,1-f][1,2,4]triazine-7-carboxamide]	> 100 nM
CC(C)C(=O)N1CCC(c2cc(-c3ccc(NC(=O)c4cn(C(C)C)c(=O)n(C5CCCCC5)c4=O)cc3)c3c(N)ncnn23)CC1 [Example 90, N-(4-(4-Amino-7-(1-isobutyrylpiperidin-4-yl)pyrrolo[2,1-f][1,2,4]triazin-5-yl)phenyl)-3-cyclohexyl-1-isopropyl-2,4-dioxo-1,2,3,4-tetrahydropyrimidine-5-carboxamide]	> 100 nM
COc1ccn(-c2ccccc2)c(=O)c1C(=O)Nc1ccc(-c2c(Br)c(C3CCN(C(=O)C(C)C)CC3)n3ncnc(N)c23)cc1 [Example 100, N-(4-(4-Amino-6-bromo-7-(1-isobutyrylpiperidin-4-yl)pyrrolo[1,2-f][1,2,4]triazin-5-yl)phenyl)-4-methoxy-2-oxo-1-phenyl-1,2-dihydropyridine-3-carboxamide]	> 100 nM
Cc1c(C(N)=O)cc(C(=O)Nc2ccc(-c3cc(C4CCN(C(=O)C(C)C)CC4)n4ncnc(N)c34)cc2)c(=O)n1-c1ccccc1 [Example 111a, N^3-(4-(4-Amino-7-(1-isobutyrylpiperidin-4-yl)pyrrolo[2,1-f][1,2,4]triazin-5-yl)phenyl)-6-methyl-2-oxo-1-phenyl-1,2-dihydropyridine-3,5-dicarboxamide]	> 100 nM

The next lines start with the values.

IC50	Compound
10 to 100 nM	CC(C)n1cc(C(=O)Nc2ccc(-c3cc(C4CCN(C5CCN(C)C5=O)CC4)n4ncnc(N)c34)cc2)c(=O)n(-c2ccccc2)c1=O (racemic) [Example 82, N-(4-(4-Amino-7-(1-(1-methyl-2-oxopyrrolidin-3-yl)piperidin-4-yl)pyrrolo[1,2-f][1,2,4]triazin-5-yl)phenyl)-1-isopropyl-2,4-dioxo-3-phenyl-1,2,3,4-tetrahydropyrimidine-5-carboxamide]
> 100 nM	CCc1cc(-c2ccc(NC(=O)c3cc4c(n(-c5ccc(F)cc5)c3=O)CCCC4=O)cc2)c2c(N)ncnn12 [Example 1, N-[4-(4-Amino-7-ethylpyrrolo[2,1-f][1,2,4]triazin-5-yl)phenyl]-1-(4-fluorophenyl)-2,5-dioxo-1,2,5,6,7,8-hexahydroquinoline-3-carboxamide]
> 100 nM	CCc1cc(-c2ccc(NC(=O)c3cccn([C@@H](CO)c4ccccc4)c3=O)cc2)c2c(N)ncnn12 [Example 2, N-[4-(4-Amino-7-ethylpyrrolo[2,1-f][1,2,4]triazin-5-yl)phenyl]-1-[(1R)-2-hydroxy-1-phenylethyl]-2-oxo-1,2-dihydropyridine-3-carboxamide]
> 100 nM	Cc1cc(-c2ccc(NC(=O)c3cccn(-c4ccccc4)c3=O)cc2)c2c(N)ncnn12 [Example 8, N-[4-(4-Amino-7-methylpyrrolo[2,1-f][1,2,4]triazin-5-yl)phenyl]-2-oxo-1-phenyl-1,2-dihydropyridine-3-carboxamide]
> 100 nM	Cc1cc(-c2ccc(NC(=O)c3cccn(-c4ccccc4)c3=O)cc2F)c2c(N)ncnn12 [Example 10, N-[4-(4-Amino-7-methylpyrrolo[2,1-f][1,2,4]triazin-5-yl)-3-fluorophenyl]-2-oxo-1-phenyl-1,2-dihydropyridine-3-carboxamide]
> 100 nM	Cc1cc(-c2ccc(NC(=O)c3cccn(-c4ccc(F)cc4)c3=O)cc2F)c2c(N)ncnn12 [Example 11, N-[4-(4-Amino-7-methylpyrrolo[2,1-f][1,2,4]triazin-5-yl)-3-fluorophenyl]-1-(4-fluorophenyl)-2-oxo-1,2-dihydropyridine-3-carboxamide]
> 100 nM	Nc1ncnn2c(C3CCOCC3)cc(-c3ccc(NC(=O)c4cccn(-c5ccccc5)c4=O)cc3)c12 [Example 13, N-{4-[4-Amino-7-(tetrahydro-2H-pyran-4-yl)pyrrolo[2,1-f][1,2,4]triazin-5-yl]phenyl}-2-oxo-1-phenyl-1,2-dihydropyridine-3-carboxamide]
> 100 nM	CN1CCC(c2cc(-c3ccc(NC(=O)c4cccn(-c5ccccc5)c4=O)cc3)c3c(N)ncnn23)CC1 [Example 20, N-{4-[4-Amino-7-(1-methylpiperidin-4-yl)pyrrolo[2,1-f][1,2,4]triazin-5-yl]phenyl}-2-oxo-1-phenyl-1,2-dihydropyridine-3-carboxamide]
> 100 nM	COC(=O)N1CCC(c2cc(-c3ccc(NC(=O)c4cccn(-c5ccccc5)c4=O)cc3)c3c(N)ncnn23)CC1 [Example 36, Methyl 4-[4-amino-5-(4-{[(2-oxo-1-phenyl-1,2-dihydropyridin-3-yl)carbonyl]amino}phenyl)pyrrolo[2,1-f][1,2,4]triazin-7-yl]piperidine-1-carboxylate]
> 100 nM	CS(=O)(=O)N1CCC(c2cc(-c3ccc(NC(=O)c4cccn(-c5ccccc5)c4=O)cc3)c3c(N)ncnn23)CC1 [Example 40, N-(4-{4-Amino-7-[1-(methylsulfonyl)piperidin-4-yl]pyrrolo[2,1-f][1,2,4]triazin-5-yl}phenyl)-2-oxo-1-phenyl-1,2-dihydropyridine-3-carboxamide]
> 100 nM	CCN(C)C(=O)N1CCC(c2cc(-c3ccc(NC(=O)c4cccn(-c5ccc(F)cc5)c4=O)cc3)c3c(N)ncnn23)CC1 [Example 56, N-{4-[4-Amino-7-(1-{[ethyl(methyl)amino]carbonyl}piperidin-4-yl)pyrrolo[2,1-f][1,2,4]triazin-5-yl]phenyl}-1-(4-fluorophenyl)-2-oxo-1,2-dihydropyridine-3-carboxamide]

target: phosphor-Axl (Homo sapiens (Human), UniProt P30530); test: TAM Enzymatic Assay (HTRF), Axl; assay type: biochemical; details: recombinant autophosphorylated Axl, 60 min, room temperature
Sequence (P30530 26-894): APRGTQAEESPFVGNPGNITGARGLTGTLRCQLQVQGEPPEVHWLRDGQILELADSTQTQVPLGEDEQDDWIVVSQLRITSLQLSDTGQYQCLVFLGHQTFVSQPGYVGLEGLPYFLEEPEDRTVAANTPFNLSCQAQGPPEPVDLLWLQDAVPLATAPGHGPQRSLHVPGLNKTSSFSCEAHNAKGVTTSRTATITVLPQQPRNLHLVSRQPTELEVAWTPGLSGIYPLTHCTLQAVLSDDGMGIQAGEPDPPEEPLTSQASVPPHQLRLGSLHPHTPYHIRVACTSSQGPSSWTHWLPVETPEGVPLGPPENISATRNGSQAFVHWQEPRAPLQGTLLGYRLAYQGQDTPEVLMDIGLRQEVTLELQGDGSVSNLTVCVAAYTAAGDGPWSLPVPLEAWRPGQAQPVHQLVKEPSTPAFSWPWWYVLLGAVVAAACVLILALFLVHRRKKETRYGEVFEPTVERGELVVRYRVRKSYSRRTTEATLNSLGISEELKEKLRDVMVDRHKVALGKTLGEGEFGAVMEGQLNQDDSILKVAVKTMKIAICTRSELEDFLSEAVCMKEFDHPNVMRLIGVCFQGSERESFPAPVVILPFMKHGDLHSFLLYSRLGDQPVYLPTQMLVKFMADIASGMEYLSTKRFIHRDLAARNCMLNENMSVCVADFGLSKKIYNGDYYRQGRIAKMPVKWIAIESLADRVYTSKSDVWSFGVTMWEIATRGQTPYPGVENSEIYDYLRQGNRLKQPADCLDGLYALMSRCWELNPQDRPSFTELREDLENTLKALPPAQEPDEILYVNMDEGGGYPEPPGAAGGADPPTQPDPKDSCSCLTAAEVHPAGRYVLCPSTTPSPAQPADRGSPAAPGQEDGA
Procedure: Autophosphorylation of Axl was carried out by incubating the recombinant Axl protein (Life Technologies, PV4275) in buffer containing 50 mM Tris, pH7.5, 0.2 mg/ml Axl, 5 mM ATP, 20 mM MgCl2 and 2 mM DTT at room temperature for 1 hour.
as §1

IC50	Compound
≤ 5 nM	Nc1ncnn2c(C3CCN(CCO)CC3)cc(-c3ccc(NC(=O)c4cc5c(n(-c6ccc(F)cc6)c4=O)CCCC5=O)cc3F)c12 [Example 60, N-(4-{4-Amino-7-[1-(2-hydroxyethyl)piperidin-4-yl]pyrrolo[2,1-f][1,2,4]triazin-5-yl}-3-fluorophenyl)-1-(4-fluorophenyl)-2,5-dioxo-1,2,5,6,7,8-hexahydroquinoline-3-carboxamide]
≤ 5 nM	CCN(C)C(=O)N1CCC(c2cc(-c3ccc(NC(=O)c4cn(C(C)C)c(=O)n(-c5ccc(F)cc5)c4=O)cc3)c3c(N)ncnn23)CC1 [Example 66, N-(4-(4-Amino-7-(1-(ethyl(methyl)carbamoyl)piperidin-4-yl)pyrrolo[1,2-f][1,2,4]triazin-5-yl)phenyl)-3-(4-fluorophenyl)-1-isopropyl-2,4-dioxo-1,2,3,4-tetrahydropyrimidine-5-carboxamide]
≤ 5 nM	CC(C)C(=O)N1CCC(c2cc(-c3ccc(NC(=O)c4cn(C(C)C)c(=O)n(-c5cccc(F)c5)c4=O)cc3)c3c(N)ncnn23)CC1 [Example 71, N-(4-(4-Amino-7-(1-isobutyrylpiperidin-4-yl)pyrrolo[1,2-f][1,2,4]triazin-5-yl)phenyl)-3-(3-fluorophenyl)-1-isopropyl-2,4-dioxo-1,2,3,4-tetrahydropyrimidine-5-carboxamide]

— patent publication US9981975B2, “Pyrrolotriazine compounds as tam inhibitors” (Incyte Corporation, priority 2016, dated 2018)
